From patent publication EP0003920A1, “Thieno (3,2-c)- and thieno (2,3-c)pyridines, process for their preparation and their therapeutical application” (OMNIUM FINANCIER AQUITAINE POUR L'HYGIENE ET LA SANTE - …, priority 1978, dated 1979)

Key:
[1] = Acute toxicity, intravenous LD50 (method of Miller and Tainter); design: species or system souris; details: mouse, in vivo, read-out: DL50/24 H/kg de poids corporel
Protocol: En ce qui concerne la toxicité aigüe, la DL50/24 H/kg de poids corporel, déterminée chez la souris selon la méthode de Miller et Tainter pour la voie orale est supérieure à 400 mg pour tous les dérivés.
Selon la même méthode, la DL50/24 H/kg de poids corporel déterminée par la vole intraveineuse est, par exemple, de 154 mg pour le dérivé N° 1, de 89 mg pour le dérivé N° 2, de 184mg pour le dérivé N° 10, de 130 mg pour le dérivé N° 11, de 350mg pour le dérivé N° 12, de 65 mg pour le dérivé N° 18, de 90 mg pour le dérivé N° 22, de 96 mg pour le dérivé N° 24 et de 105 mg pour le dérivé N° 31.

rat [2] = experiment: Anticonvulsant action against electroshock; type: in vivo; details: 100 mg/kg oral, electroshock 30 min after treatment, score 0 to 4, untreated controls 4
Protocol: Cette action a été étudiée vis-à-vis des électrochocs. L'application chez le rat d'une stimulation électrique supérieure au seuil électro-convulsivant provoque des convulsions expérimentales. On compare alors chez les animaux témoins et chez les animaux traités, à la fois la présence et la durée de chacune des phases convulsives et l'intensité de la crise dans son ensemble.
On établit des séries de 10 rats par produit à tester et on administre par la voie orale, à chaque animal, 100 mg/kg de ce produit.
De chaque côté de la base de la queue de chaque […], une électrode Cat mise en place et 30 minutes après le traitement, l'animal placé dans une enceinte de verre reçoit pendant 50 millisecondes un courant sinusoïdal de 50 périodes/secondes de 120 volts.
Le passage du courant déclenche une crise convulsive dont chacune des phases (tonique, clonique, relachement musculaire) est chronométrée. L'intensité de la crise est alors notée de 0 à 4 selon la présence de chacune des phases et leur durée. Les produits de l'invention sont testés comparativement au phénobarbital qui possède une action anti-convulsivante marquée (intensité de la crise = 2), alors que chez les animaux témoins non traités c'est l'intensité maxima de 4 qui est obtenue.

rat [3] = experiment: Localised carrageenan-induced oedema; type: in vivo; details: 100 mg/kg oral at -1 h, 0 h, +2.5 h
Protocol: Une solution de carragénine (0,1 ml), à 1 %, est injectée dans les fléchisseurs métatarsiens de la patte postérieure droite du rat au temps 0. Les animaux du lot traité reçoivent en outre, par la voie orale, 100 mg par kg du dérivé à tester respectivement 1 heure avant, en même temps que l'injection de l'agent phlogogène, puis 1 heure et 2 heures et demi après. Les mesures qui sont effectuées à l'aide du micromètre de ROGH au temps 0, 1 heure, 2 heures, 3 heures et 5 heures après l'administration de la carragénine permettent de déterminer, en fonction du temps, le pourcentage d'activité anti-inflammatoire, par comparaison avec le lot témoin.

rat [4] = experiment: Generalised ovalbumin oedema; type: in vivo; details: po, 100 mg/kg per os 1 h before and together with ovalbumin
Protocol: Une injection intrapéritonéale simultanée de 1 ml d'ovalbumine et de 0,5 ml d'une solution aqueuse de bleu Evans à 1% est effectuée sur le rat. D'autre part, on administre per os aux animaux du lot traité 100 mg/kg du dérivé à tester une heure avant et en même temps que l'ovalbumine. L'intensité du phénomène ainsi provoqué est notée par un chiffre allant de 1 à 5 suivant la progression du syndrome inflammatoire. On détermine ainsi la moyenne de l'intensité oedémateuse et le pourcentage de diminution de la réaction oedémateuse par rapport au témoin, en fonction du temps.

souris = experiment: Potentiation of an infra-hypnotic dose of sodium pentobarbital; type: in vivo; details: mouse, 100 mg/kg oral, 30 min before i.p. infra-hypnotic dose of sodium pentobarbital; control 0
Protocol: Les composés de l'invention potentialisent de façon très nette l'action des hypnotiques. En effet, administrés à différents lots de souris par la voie orale, à la dose de 100 mg/ kg, trente minutes avant l'injection intrapéritonéale d'une dose infra-hypnotique de pentobarbital sodique, ils produisent par rapport aux animaux témoins non traités, une nette poten- tialisation de l'action du barbiturique.
En effet, le nombre de souris endormies, le temps moyen d'endormissement et la durée du sommeil sont nettement accrus dans les lots traités. Les résultats des composés les plus actifs sont rassemblés dans le Tableau I suivant.

[5] = 1 h after carrageenan, read-out: Pourcentage d'activité anti-inflammatoire 1ère heure
[6] = 2 h after carrageenan, read-out: Pourcentage d'activité anti-inflammatoire 2ème heure
[7] = 3 h after carrageenan, read-out: Pourcentage d'activité anti-inflammatoire 3ème heure
[8] = 5 h after carrageenan, read-out: Pourcentage d'activité anti-inflammatoire 5ème heure
[9] = 2 h after ovalbumin injection, read-out: Pourcentage d'activité anti-inflammatoire 2ème heure
[10] = 3 h after ovalbumin injection, read-out: Pourcentage d'activité anti-inflammatoire 3ème heure

| SMILES | LD50 at 24 h [1] [mg/kg] | valeurs moyennes de l'intensité des crises (rat [2]) | inhibition in vivo at 100 mg/kg (rat [3]; [5]) [%] | inhibition in vivo at 100 mg/kg (rat [3]; [6]) [%] | inhibition in vivo at 100 mg/kg (rat [3]; [7]) [%] | inhibition in vivo at 100 mg/kg (rat [3]; [8]) [%] | inhibition in vivo at 100 mg/kg (rat [4]; [9]) [%] | inhibition in vivo at 100 mg/kg (rat [4]; [10]) [%] | Pourcentage d'animaux endormis (souris) [%] |
| --- | --- | --- | --- | --- | --- | --- | --- | --- | --- |
| NC(=O)c1cc2sccc2cn1 [Dérivé 31, carbamoyl-6 thiéno [3,2-C] pyridine] | 105 | 2,5 | – | – | – | – | – | – | – |
| O=C(NCc1ccncc1)c1cc2sccc2cn1 [Dérivé 22, (pyridyl-4 méthyl)aminocarbonyl-6 thiéno[3,2-c]pyridine] | 90 | – | 41 | 47 | 51 | 55 | 51 | 58 | 70 |
| O=C(c1cc2sccc2cn1)N1CCCC1 [Dérivé 10, (pyrrolidinyl-1)carbonyl-6 thiéno[3,2-c] pyridine] | 184 | – | 37 | 42 | 46 | 51 | 47 | 55 | 90 |
| CNC(=O)c1cc2sccc2cn1 [Dérivé 1, Méthylaminocarbonyl-6 thiéno [3,2-c] pyridine] | 154 | 2,5 | 35 | 42 | 46 | 47 | 48 | 56 | 70 |
